Assay results: article PMC9780108, “An intrinsically disordered antimicrobial peptide dendrimer from stereorandomized virtual screening” (Cell Reports. Physical Science, 2022)
In brackets after ≈: the same amount, converted by molar mass. Residues, ends and D or L forms follow the SMILES beside them.

Assays:
[1] = system: S aureus COL (methicillin-resistant Staphylococcus aureus)
HEK293 cell line = assay type: cell-based; conditions: 48 h
Protocol: HEK 293 cell line were cultured and maintained in DMEM (Dulbeccos modified Eagle
medium, Sigma Aldrich) supplemented with 10% FBS (Sigma Aldrich) and 1%
penicillin/streptomycin. Cells were incubated in a humidified incubator at 37°C in the presence
HEK 293 cell were seeded into 96 well plates at the density of 2 × 10^3 cells/well and incubated
in DMEM containing 10% FBS for 10-14 hours at 37°C in the presence of 5% CO2. The next
day, stock solution of compounds were prepared at concentration of 2 mg/mL in DMEM
containing 10% FBS. 1/2 or 1/3 serial dilution of the peptide dendrimers from 2 mg/mL or 200
µg/mL were performed in DMEM containing 10% FBS. The medium was removed from cell
culture and replaced with the compounds at different concentration after washing with PBS.
The cells were incubated in DMEM containing 10% FBS at 37°C in the presence of 5% CO 2.
Negative control was untreated cell culture without compounds and blank control was wells
without cell but only medium. After 48 hours, a final concentration of 10% AlamarBlue®
(Thermo Fisher Scientific, Reinach, CH) was added to each well . The cells were incubated for
3-5 hours at 37°C with 5% CO 2. The fluorescence was then measured on a Tecan Infinite
M1000 Pro plate reader at λex = 560 nm and λem = 590 nm. The value was normalized
according to the untreated cells.

MIC at pH 5.0, S aureus COL ([1]; COL (methicillin-resistant, pH 5)): > 64 μg/mL
MIC at pH 7.4, S aureus COL ([1]; COL (methicillin-resistant, pH 7.4)): > 64 μg/mL
MIC at pH 8.0, S aureus COL ([1]; COL (methicillin-resistant, pH 8)): 32 μg/mL
MIC at pH 5.0, P. aeruginosa PAO1 (P. aeruginosa PAO1; PAO1, pH 5): 32 μg/mL
MIC at pH 7.4, P. aeruginosa PAO1 (P. aeruginosa PAO1; PAO1, pH 7.4): 8 μg/mL
MIC at pH 8.0, P. aeruginosa PAO1 (P. aeruginosa PAO1; PAO1, pH 8): 8 μg/mL
MIC at pH 5.0, A. baumannii ATCC 19606 (A. baumannii ATCC 19606; ATCC 19606, pH 5): 32 μg/mL
MIC at pH 7.4, A. baumannii ATCC 19606 (A. baumannii ATCC 19606; ATCC 19606, pH 7.4): 8 μg/mL
MIC at pH 8.0, A. baumannii ATCC 19606 (A. baumannii ATCC 19606; ATCC 19606, pH 8): 4 μg/mL
MIC at pH 5.0, K. pneumoniae NCTC 418 (K. pneumoniae NCTC 418; NCTC 418, pH 5): > 64 μg/mL
MIC at pH 7.4, K. pneumoniae NCTC 418 (K. pneumoniae NCTC 418; NCTC 418, pH 7.4): 16 μg/mL
MIC at pH 8.0, K. pneumoniae NCTC 418 (K. pneumoniae NCTC 418; NCTC 418, pH 8): 16 μg/mL
MIC at pH 5.0, E. coli W3110 (E. coli W3110; W3110, pH 5): 32 μg/mL
MIC at pH 7.4, E. coli W3110 (E. coli W3110; W3110, pH 7.4): 8 μg/mL
MIC at pH 8.0, E. coli W3110 (E. coli W3110; W3110, pH 8): 4 μg/mL
SMILES: CC(C)C[C@@H](NC(=O)[C@@H](CC(C)C)NC(=O)[C@@H](CCCCN)NC(=O)[C@@H](CCCCNC(=O)[C@@H](CC(C)C)NC(=O)[C@@H](CC(C)C)NC(=O)[C@@H](CCCCNC(=O)[C@@H](CC(C)C)NC(=O)[C@@H](CCCCN)NC(=O)[C@@H](CCCCNC(=O)[C@@H](CC(C)C)NC(=O)[C@H](N)CCCCN)NC(=O)[C@@H](CC(C)C)NC(=O)[C@H](N)CCCCN)NC(=O)[C@@H](CC(C)C)NC(=O)[C@@H](CCCCN)NC(=O)[C@@H](CCCCNC(=O)[C@@H](CC(C)C)NC(=O)[C@H](N)CCCCN)NC(=O)[C@@H](CC(C)C)NC(=O)[C@H](N)CCCCN)NC(=O)[C@@H](CC(C)C)NC(=O)[C@@H](CC(C)C)NC(=O)[C@@H](CCCCNC(=O)[C@@H](CC(C)C)NC(=O)[C@@H](CCCCN)NC(=O)[C@@H](CCCCNC(=O)[C@@H](CC(C)C)NC(=O)[C@H](N)CCCCN)NC(=O)[C@@H](CC(C)C)NC(=O)[C@H](N)CCCCN)NC(=O)[C@@H](CC(C)C)NC(=O)[C@@H](CCCCN)NC(=O)[C@@H](CCCCNC(=O)[C@@H](CC(C)C)NC(=O)[C@H](N)CCCCN)NC(=O)[C@@H](CC(C)C)NC(=O)[C@H](N)CCCCN)C(N)=O [D-T25, reference compound] (HELM PEPTIDE1{[dK].[dL].[dK].[dK].[dL].[dK].[dL].[dL].[dK].[dK].[dL].[dL].[am]}|PEPTIDE2{[dK].[dL]}|PEPTIDE3{[dK].[dL].[dK].[dK].[dL].[dK].[dL].[dL]}|PEPTIDE4{[dK].[dL]}|PEPTIDE5{[dK].[dL].[dK].[dK].[dL]}|PEPTIDE6{[dK].[dL]}|PEPTIDE7{[dK].[dL].[dK].[dK].[dL]}|PEPTIDE8{[dK].[dL]}$PEPTIDE1,PEPTIDE2,3:R3-2:R2|PEPTIDE3,PEPTIDE4,3:R3-2:R2|PEPTIDE5,PEPTIDE6,3:R3-2:R2|PEPTIDE7,PEPTIDE8,3:R3-2:R2|PEPTIDE1,PEPTIDE7,6:R3-5:R2|PEPTIDE1,PEPTIDE3,9:R3-8:R2|PEPTIDE3,PEPTIDE5,6:R3-5:R2$$$V2.0)
IC50 HEK293 (HEK293 cell line): 33 ± 3 µg/mL (≈ 7.15 µM)
